Test results from PubChem BioAssay (NCI).
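In this assay, cells in 96-well plates receive the compound at five concentrations for 48 hours. Endpoints are linearly interpolated between the surrounding concentrations. TGI denotes the concentration required for complete inhibition of growth.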

What was measured:
Assay in all cases: NCI-60 cell line screen, 48 h
[1] = test system: SNB-19 CNS
[2] = test system: NCI-H23 lung
[3] = test system: A498 renal
[4] = test system: NCI/ADR-RES ovarian
[5] = test system: OVCAR-4 ovarian
[6] = test system: M14 melanoma
[7] = test system: HOP-62 NSCLC
[8] = test system: NCI-H460 lung
[9] = test system: T-47D breast
[10] = test system: SK-MEL-28 melanoma
[11] = test system: SF-539 CNS
[12] = test system: SK-MEL-2 melanoma
[13] = test system: UO-31 renal
[14] = test system: NCI-H226 lung
[15] = test system: K-562 leukemia
[16] = test system: SF-268 CNS
[17] = test system: COLO 205 colon
[18] = test system: SR leukemia
[19] = test system: CCRF-CEM leukemia
[20] = test system: TK-10 renal

`CC1(C)C2CCC1(C)C(N/C(Sc1ccccc1)=C(/C(Cl)=C(Cl)Cl)[N+](=O)[O-])C2` (stereo not drawn) showed a TGI [1] of 43.9 µM, a TGI [2] of 27.6 µM and a TGI [3] of 28.2 µM. The TGI [4] was 30.5 µM, the TGI [5] was 29.8 µM and the TGI [6] was 25.9 µM. The TGI [7] was 62.9 µM, the TGI [8] was 32.7 µM and the TGI [9] was 31.2 µM. It also gave a TGI [10] of 24.9 µM, a TGI [11] of 26.2 µM and a TGI [12] of 25 µM. For the same molecule, the TGI [13] was 26 µM, the TGI [14] was 31.1 µM and the TGI [15] was > 100 µM. It also gave a TGI [16] of 24.4 µM.

For `CCC1=CCN(c2cc(C)ccn2)OC1c1ccc(OC)cc1` (stereo not drawn), the TGI [1] was > 100 µM, the TGI [2] was > 100 µM and the TGI [17] was 33.6 µM. The TGI [5] was > 100 µM, the TGI [6] was > 100 µM and the TGI [7] was > 100 µM. The TGI [18] was 68.5 µM, the TGI [8] was > 100 µM and the TGI [10] was 64.9 µM. For the same molecule, the TGI [12] was 41.4 µM, the TGI [13] was > 100 µM and the TGI [14] was > 100 µM. For the same molecule, the TGI [19] was 85.7 µM, the TGI [15] was > 100 µM and the TGI [16] was > 100 µM.

`S=C(N/N=C/c1ccccn1)N1CCCCC1` was tested, and the TGI [1] was > 100 µM, the TGI [2] was > 45.7 µM and the TGI [17] was > 100 µM. The TGI [4] was < 0.0382 µM, the TGI [5] was > 24.1 µM and the TGI [6] was 1.36 µM. The TGI [18] was 0.217 µM, the TGI [8] was 0.457 µM and the TGI [10] was > 100 µM. The TGI [11] was 0.749 µM, the TGI [20] was > 100 µM and the TGI [12] was 18.1 µM. It also gave a TGI [13] of 15.2 µM, a TGI [14] of 6.97 µM and a TGI [15] of 45.6 µM.

In the case of `OCC12C=CC(C1)c1ccccc12` (stereo not drawn), the TGI [1] is reported as > 100 µM, the TGI [2] is reported as > 100 µM and the TGI [3] is reported as > 100 µM. For the same molecule, the TGI [17] was > 100 µM, the TGI [5] was > 100 µM and the TGI [6] was > 100 µM. For the same molecule, the TGI [7] was > 100 µM, the TGI [18] was > 100 µM and the TGI [8] was > 100 µM. The TGI [10] was > 100 µM, the TGI [20] was > 100 µM and the TGI [13] was > 100 µM. The TGI [14] was > 100 µM, the TGI [19] was > 100 µM and the TGI [15] was > 100 µM. The TGI [16] was > 100 µM.

Molecule `Clc1ccc(CCN(CCc2ccc(Cl)c(Cl)c2)CCN2CCCC2)cc1Cl` has a TGI [2] of 3.42 µM, a TGI [3] of 3.23 µM and a TGI [17] of 3.48 µM. It also gave a TGI [4] of 3.39 µM, a TGI [5] of 3.66 µM and a TGI [6] of 3.1 µM. For the same molecule, the TGI [7] was 3.03 µM, the TGI [8] was 3.34 µM and the TGI [9] was 12.3 µM. The TGI [11] was 3.18 µM, the TGI [20] was 3.17 µM and the TGI [12] was 3.04 µM. The TGI [13] was 3 µM, the TGI [14] was 4.07 µM and the TGI [19] was 2.73 µM. For the same molecule, the TGI [16] was 3.73 µM.

For `CCC(CC)NC1=C(NC(C)=O)C(=O)c2ccccc2C1=O`, the TGI [1] was > 50 µM, the TGI [2] was > 50 µM and the TGI [17] was > 50 µM. The TGI [5] was > 50 µM, the TGI [6] was > 50 µM and the TGI [7] was > 50 µM. The TGI [18] was > 50 µM, the TGI [8] was > 50 µM and the TGI [10] was > 50 µM. The TGI [11] was > 50 µM, the TGI [20] was > 50 µM and the TGI [12] was > 50 µM. The TGI [13] was > 50 µM, the TGI [14] was > 50 µM and the TGI [19] was > 50 µM. For the same molecule, the TGI [15] was > 50 µM and the TGI [16] was > 50 µM.

`C#CCn1c(=O)c(I)cn(/C(=C/C(=O)OCC)C(=O)OCC)c1=O` showed a TGI [1] of 34.5 µM, a TGI [2] of 45.5 µM and a TGI [3] of 33.7 µM. The TGI [17] was 2.94 µM, the TGI [4] was > 84 µM and the TGI [5] was 21.4 µM. It also gave a TGI [6] of 3.61 µM, a TGI [7] of 32.9 µM and a TGI [8] of 49.8 µM. It also gave a TGI [9] of 2.28 µM, a TGI [10] of 26.2 µM and a TGI [11] of 12.3 µM. The TGI [20] was 1.67 µM, the TGI [12] was 33 µM and the TGI [13] was 2.86 µM. The TGI [14] was 47.7 µM, the TGI [19] was > 57.7 µM and the TGI [16] was 35.1 µM.

With `CCOC1C(Br)Cn2c(=O)c3cc4ccccc4cc3c(=O)n2C1C` (stereo not drawn) the TGI [1] was > 100 µM, the TGI [2] was > 100 µM and the TGI [3] was 78.7 µM. For the same molecule, the TGI [17] was > 100 µM, the TGI [5] was > 100 µM and the TGI [6] was > 100 µM. For the same molecule, the TGI [7] was > 100 µM, the TGI [18] was > 100 µM and the TGI [8] was > 100 µM. The TGI [10] was > 100 µM, the TGI [11] was > 100 µM and the TGI [20] was > 100 µM. The TGI [12] was > 100 µM, the TGI [13] was > 100 µM and the TGI [14] was > 100 µM. For the same molecule, the TGI [19] was > 100 µM, the TGI [15] was > 100 µM and the TGI [16] was > 100 µM.

For `CC12C=CC(C)(C3C(=O)C4C(C(=O)C31)C1(C)C=CC4(C)S1=O)S2=O` (stereo not drawn), the TGI [1] was > 100 µM, the TGI [2] was > 100 µM and the TGI [17] was > 100 µM. For the same molecule, the TGI [4] was > 100 µM, the TGI [6] was > 100 µM and the TGI [7] was > 100 µM. For the same molecule, the TGI [8] was > 100 µM, the TGI [11] was > 100 µM and the TGI [20] was > 100 µM. The TGI [13] was > 100 µM, the TGI [14] was > 100 µM and the TGI [16] was > 100 µM.

For `COc1ccc2nc3cc(Cl)ccc3c(Sc3ccc([N+](=O)[O-])cc3C)c2c1`, the TGI [1] was > 100 µM, the TGI [2] was > 100 µM and the TGI [3] was > 100 µM. For the same molecule, the TGI [17] was 46.1 µM, the TGI [5] was > 100 µM and the TGI [6] was > 100 µM. The TGI [7] was > 100 µM, the TGI [18] was > 100 µM and the TGI [8] was > 100 µM. The TGI [10] was > 100 µM, the TGI [11] was > 100 µM and the TGI [20] was > 100 µM. For the same molecule, the TGI [12] was > 100 µM, the TGI [13] was > 100 µM and the TGI [14] was > 100 µM. The TGI [19] was > 100 µM, the TGI [15] was > 100 µM and the TGI [16] was > 100 µM.

With `CCN1C[C@]2(C)CC[C@H](O)C34C1C(C[C@@H]32)[C@@]1(O)CC[C@H]2C[C@@H]4[C@@H]1[C@H]2O` the TGI [1] was > 100 µM, the TGI [2] was > 100 µM and the TGI [17] was > 100 µM. The TGI [5] was > 100 µM, the TGI [6] was > 100 µM and the TGI [7] was > 100 µM. For the same molecule, the TGI [18] was > 100 µM, the TGI [8] was > 100 µM and the TGI [10] was > 100 µM. The TGI [11] was > 100 µM, the TGI [20] was > 100 µM and the TGI [12] was > 100 µM. For the same molecule, the TGI [13] was > 100 µM, the TGI [19] was > 100 µM and the TGI [16] was > 100 µM.

For `CNC1(c2cc3ccccc3s2)CCCCC1`, the TGI [1] was > 100 µM, the TGI [2] was > 100 µM and the TGI [3] was > 100 µM. The TGI [17] was 41.9 µM, the TGI [4] was > 100 µM and the TGI [5] was > 100 µM. The TGI [6] was 35.7 µM, the TGI [7] was > 100 µM and the TGI [18] was 67.3 µM. For the same molecule, the TGI [8] was 35.4 µM, the TGI [11] was 46.3 µM and the TGI [20] was > 100 µM. For the same molecule, the TGI [13] was > 100 µM, the TGI [14] was 91.3 µM and the TGI [15] was > 100 µM. The TGI [16] was 42.8 µM.

Work on `CCCCCCCC(CC(=O)NC(CO)C(=O)NC(CO)CC(C)C)OC(=O)CC(CCCCCCC)OC(=O)CC(CCCCCCC)OC1OC(C)C(O)C(OC2OC(C)C(OC(C)=O)C(O)C2O)C1O` (stereo not drawn) yielded a TGI [1] of 18.3 µM, a TGI [2] of 22 µM and a TGI [3] of 23.5 µM. For the same molecule, the TGI [17] was 9.14 µM, the TGI [5] was 19.4 µM and the TGI [6] was 13.8 µM. The TGI [7] was 31.2 µM, the TGI [18] was 6.22 µM and the TGI [8] was 15.6 µM. The TGI [9] was 23.1 µM, the TGI [10] was 19.4 µM and the TGI [11] was 23.4 µM. It also gave a TGI [20] of 29.8 µM, a TGI [13] of 28.8 µM and a TGI [14] of 35.5 µM. For the same molecule, the TGI [19] was 14.2 µM, the TGI [15] was 34.3 µM and the TGI [16] was 23.3 µM.

`COc1cc(C=O)c(-c2c(C=O)ccc3c2OCO3)c(OC)c1OC` was tested, and the TGI [1] was > 100 µM, the TGI [2] was > 100 µM and the TGI [3] was > 100 µM. The TGI [17] was > 100 µM, the TGI [5] was > 100 µM and the TGI [6] was > 100 µM. For the same molecule, the TGI [7] was > 100 µM, the TGI [18] was > 100 µM and the TGI [8] was > 100 µM. For the same molecule, the TGI [10] was > 100 µM, the TGI [11] was > 100 µM and the TGI [20] was > 100 µM. For the same molecule, the TGI [12] was > 100 µM, the TGI [13] was > 100 µM and the TGI [14] was > 100 µM. The TGI [19] was > 100 µM, the TGI [15] was > 100 µM and the TGI [16] was > 100 µM.
